Data reported in PubChem BioAssay AID330 (DTP/NCI, 2004).
Values joined by “and” are separate entries in the source; they are usually repeats but may differ in a detail not shown here. Equal values may be shown once. Toxic doses and inconclusive results are not listed. How the source made its calls: active means survival T/C of 150% or more; inactive means T/C below 125% in these data.

Tested on: P388 leukemia ip, CD2F1 mice, survival T/C
Experiment: NCI In Vivo Anticancer Drug Screen. Data for tumor model P388 Leukemia (intraperitoneal) in CD2F1 (CDF1) mice
Details: endpoint: median survival time, higher = longer survival
Procedure, shortened: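 Mice carrying the transplanted tumor received test compound or vehicle. Survival was recorded in each group, and the value is the treated-group measurement divided by that of the vehicle-treated control group.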

[1] = dose: 100.0 mg/kg/injection, schedule: Q01DX001 (ip), vehicle: Klucel (hydroxypropylcellulose) (HPC)
[2] = dose: 200.0 mg/kg/injection, schedule: Q01DX001 (ip), vehicle: Klucel (hydroxypropylcellulose) (HPC)
[3] = dose: 50.0 mg/kg/injection, schedule: Q01DX005 (ip), vehicle: Klucel (hydroxypropylcellulose) (HPC)
[4] = dose: 100.0 mg/kg/injection, schedule: Q01DX005 (ip), vehicle: Klucel (hydroxypropylcellulose) (HPC)
[5] = dose: 200.0 mg/kg/injection, schedule: Q01DX005 (ip), vehicle: Klucel (hydroxypropylcellulose) (HPC)
[6] = dose: 50.0 mg/kg/injection, schedule: Q01DX009 (ip), vehicle: Klucel (hydroxypropylcellulose) (HPC)
[7] = dose: 100.0 mg/kg/injection, schedule: Q01DX009 (ip), vehicle: Klucel (hydroxypropylcellulose) (HPC)
[8] = dose: 200.0 mg/kg/injection, schedule: Q01DX009 (ip), vehicle: Klucel (hydroxypropylcellulose) (HPC)
[9] = dose: 200.0 mg/kg/injection, schedule: Q01DX009 (ip), vehicle: saline with Tween-80
[10] = dose: 50.0 mg/kg/injection, schedule: Q01DX009 (ip), vehicle: saline with Tween-80
[11] = dose: 60.0 mg/kg/injection, schedule: Q01DX005 (ip), vehicle: saline with Tween-80
[12] = dose: 120.0 mg/kg/injection, schedule: Q01DX005 (ip), vehicle: saline with Tween-80
[13] = dose: 240.0 mg/kg/injection, schedule: Q01DX005 (ip), vehicle: saline with Tween-80

Measured: T/C

CC(C)(C)/C=C/N=NNc1ccccn1
inactive: [1] 97 % of control | [2] 92 % of control | dose: 400.0 mg/kg/injection, schedule: Q01DX001 (ip), vehicle: Klucel (hydroxypropylcellulose) (HPC) 94 % of control

CN(C)/N=C(\N)c1nnn(C)n1
inactive: dose: 50.0 mg/kg/injection, schedule: Q01DX001 (ip), vehicle: Klucel (hydroxypropylcellulose) (HPC) 106 % of control | [1] 101 % of control | [2] 100 % of control

C(=NCCC[Si]12OCCN(CCO1)CCO2)c1ccc(C=NCCC[Si]23OCCN(CCO2)CCO3)cc1
inactive: [3] 95 % of control | [4] 97 % of control | [5] 95 % of control

Cc1ccc(NC2=NCCS2)cc1Cl
inactive: [6] 110 % of control | [7] 115 % of control | [8] 89 % of control

CNC(=O)OCc1c(COC(=O)NC)c(C)n(-c2ccc(OC)cc2)c1C
active: dose: 12.5 mg/kg/injection, schedule: Q01DX009 (ip), vehicle: Klucel (hydroxypropylcellulose) (HPC) 152 % of control | dose: 25.0 mg/kg/injection, schedule: Q01DX009 (ip), vehicle: Klucel (hydroxypropylcellulose) (HPC) 153 % of control | [6] 171 % of control

Clc1ccc(N=C(SSC(Cl)(Cl)Cl)SSC(Cl)(Cl)Cl)cc1
inactive: [9] 114 % of control

COc1cccc2c(NCCCCCCNc3c4ccccc4nc4c(OC)cccc34)c3ccccc3nc12
inactive: dose: 0.62 mg/kg/injection, schedule: Q## X009 (ip), vehicle: lactic acid 123 % of control | dose: 0.63 mg/kg/injection, schedule: Q01DX009 (ip), vehicle: other 102 % of control | dose: 1.25 mg/kg/injection, schedule: Q01DX009 (ip), vehicle: other 122 % of control | dose: 10.0 mg/kg/injection, schedule: Q## X009 (ip), vehicle: lactic acid 119 % of control
active: dose: 2.5 mg/kg/injection, schedule: Q## X009 (ip), vehicle: lactic acid 160 % of control | dose: 5.0 mg/kg/injection, schedule: Q## X009 (ip), vehicle: lactic acid 161 % of control

CCOC(=O)NC(=S)c1cccn1C
inactive: [3] 98 % of control | [4] 103 % of control | [5] 105 % of control

COC(=O)c1ccoc1
inactive: [10] 96 % of control | dose: 50.0 mg/kg/injection, schedule: Q01DX009 (ip), vehicle: saline 116 % of control | dose: 100.0 mg/kg/injection, schedule: Q01DX009 (ip), vehicle: saline with Tween-80 108 % of control | [9] 123 % of control | dose: 200.0 mg/kg/injection, schedule: Q01DX009 (ip), vehicle: saline 113 % of control | dose: 400.0 mg/kg/injection, schedule: Q01DX009 (ip), vehicle: saline 107 % of control

COC1CC(CC2CCC(C)C(C(C)C(=O)O)O2)OC2(OC(C)(C3CCC(C)(C4OC(C5OC(O)(CO)C(C)CC5C)CC4C)O3)CC2C)C1C (centres undefined)
inactive: dose: 0.08 mg/kg/injection, schedule: Q01DX009 (ip), vehicle: Klucel (hydroxypropylcellulose) (HPC) 103 % of control | dose: 0.15 mg/kg/injection, schedule: Q01DX009 (ip), vehicle: Klucel (hydroxypropylcellulose) (HPC) 109 % of control | dose: 0.31 mg/kg/injection, schedule: Q01DX009 (ip), vehicle: Klucel (hydroxypropylcellulose) (HPC) 104 % of control and 105 % of control and 107 % of control | dose: 2.5 mg/kg/injection, schedule: Q01DX009 (ip), vehicle: Klucel (hydroxypropylcellulose) (HPC) 102 % of control and 123 % of control and 91 % of control | dose: 5.0 mg/kg/injection, schedule: Q01DX009 (ip), vehicle: Klucel (hydroxypropylcellulose) (HPC) 100 % of control

NC(CCSCc1ccc(N(CCCl)CCCl)cc1)C(=O)O (centres undefined)
active: dose: 3.13 mg/kg/injection, schedule: Q04DX003 (ip), vehicle: saline with Tween-80 154 % of control | dose: 6.25 mg/kg/injection, schedule: Q04DX003 (ip), vehicle: saline with Tween-80 163 % of control | dose: 12.5 mg/kg/injection, schedule: Q04DX003 (ip), vehicle: saline with Tween-80 190 % of control | dose: 25.0 mg/kg/injection, schedule: Q01DX009 (ip), vehicle: saline with Tween-80 163 % of control and 227 % of control | dose: 25.0 mg/kg/injection, schedule: Q04DX003 (ip), vehicle: saline with Tween-80 181 % of control | dose: 50.0 mg/kg/injection, schedule: Q04DX003 (ip), vehicle: saline with Tween-80 263 % of control | dose: 100.0 mg/kg/injection, schedule: Q04DX003 (ip), vehicle: saline with Tween-80 222 % of control and 231 % of control
inactive: dose: 6.25 mg/kg/injection, schedule: Q01DX009 (ip), vehicle: saline with Tween-80 118 % of control | dose: 12.5 mg/kg/injection, schedule: Q01DX009 (ip), vehicle: saline with Tween-80 122 % of control | [10] 95 % of control

CS(=O)CC(=N\O)/C(CS(C)=O)=N\O (centres undefined)
inactive: dose: 60.0 mg/kg/injection, schedule: Q01DX005 (ip), vehicle: saline 104 % of control | dose: 120.0 mg/kg/injection, schedule: Q01DX005 (ip), vehicle: saline 108 % of control | dose: 240.0 mg/kg/injection, schedule: Q01DX005 (ip), vehicle: saline 103 % of control

COc1c(CC(C)O)c2c3c(CC(C)O)c(OC)c(=O)c4cc(O)c5c(c6c(c(O)cc(c1=O)c26)OCO5)c43 (centres undefined)
inactive: dose: 25.0 mg/kg/injection, schedule: Q04DX002 (ip), vehicle: saline with Tween-80 101 % of control | dose: 50.0 mg/kg/injection, schedule: Q04DX002 (ip), vehicle: saline with Tween-80 109 % of control | dose: 100.0 mg/kg/injection, schedule: Q04DX002 (ip), vehicle: saline with Tween-80 101 % of control | dose: 200.0 mg/kg/injection, schedule: Q04DX002 (ip), vehicle: saline with Tween-80 115 % of control | dose: 400.0 mg/kg/injection, schedule: Q04DX002 (ip), vehicle: saline with Tween-80 115 % of control

CC1OC(O[C@@H]2OC=C(C=O)[C@@]3(O)CC[C@H](C)[C@@H]23)C(O)C(O)C1O (some centres undefined)
inactive: dose: 6.25 mg/kg/injection, schedule: Q01DX005 (ip), vehicle: Klucel (hydroxypropylcellulose) (HPC) 100 % of control | dose: 12.5 mg/kg/injection, schedule: Q01DX005 (ip), vehicle: Klucel (hydroxypropylcellulose) (HPC) 116 % of control | dose: 25.0 mg/kg/injection, schedule: Q01DX005 (ip), vehicle: Klucel (hydroxypropylcellulose) (HPC) 95 % of control | [3] 87 % of control

C1CCC([Se][Se]C2CCCCC2)CC1
inactive: [6] 103 % of control | [7] 94 % of control

O=C(O)COC1CC(=O)N2c3ccccc3C34CCN5C(=O)C(=O)C(CC53)C1C24 (centres undefined)
inactive: [11] 96 % of control | [12] 95 % of control | [13] 88 % of control

COC(=O)c1nnn(Cc2ccccc2)c1Cl
inactive: [3] 98 % of control | [4] 103 % of control and 104 % of control | [5] 102 % of control and 105 % of control

C=CC1(C)CCC2C(=CCC3C(C)(COC4OC(CO)C(O)C(O)C4O)C(O)CCC23C)C1 (centres undefined)
inactive: dose: 3.0 mg/kg/injection, schedule: Q01DX009 (ip), vehicle: Klucel (hydroxypropylcellulose) (HPC) 100 % of control | dose: 6.0 mg/kg/injection, schedule: Q01DX009 (ip), vehicle: Klucel (hydroxypropylcellulose) (HPC) 94 % of control | dose: 12.0 mg/kg/injection, schedule: Q01DX009 (ip), vehicle: Klucel (hydroxypropylcellulose) (HPC) 103 % of control | dose: 24.0 mg/kg/injection, schedule: Q01DX009 (ip), vehicle: Klucel (hydroxypropylcellulose) (HPC) 103 % of control | dose: 48.0 mg/kg/injection, schedule: Q01DX009 (ip), vehicle: Klucel (hydroxypropylcellulose) (HPC) 106 % of control

ClCCN(CCN(CCCl)c1ccc2ccccc2c1)c1ccc2ccccc2c1
inactive: [6] 109 % of control | [7] 112 % of control | [8] 107 % of control

Nc1ncnc2nc(-c3ccccc3)[nH]c12
inactive: [11] 102 % of control | [12] 100 % of control | [13] 105 % of control

C=C(C(=O)OC)C1C=CCC1 (centres undefined)
inactive: dose: 12.5 mg/kg/injection, schedule: Q01DX009 (ip), vehicle: distilled water + Tween-80 100 % of control | dose: 25.0 mg/kg/injection, schedule: Q01DX009 (ip), vehicle: distilled water + Tween-80 100 % of control | dose: 50.0 mg/kg/injection, schedule: Q01DX009 (ip), vehicle: distilled water + Tween-80 111 % of control | dose: 100.0 mg/kg/injection, schedule: Q01DX009 (ip), vehicle: distilled water + Tween-80 101 % of control | dose: 200.0 mg/kg/injection, schedule: Q01DX009 (ip), vehicle: distilled water + Tween-80 86 % of control

CCCCCCCCCCCCCCCCCC[N+]1(CCC(C)C)CCSCC1
inactive: dose: 100.0 mg/kg/injection, schedule: Q01DX001 (ip), vehicle: saline with Tween-80 88 % of control | dose: 200.0 mg/kg/injection, schedule: Q01DX001 (ip), vehicle: saline with Tween-80 97 % of control
